# According to US20230398130A1, “METHODS AND COMPOSITIONS FOR DIFFERENTIATING STEM CELLS” (Massachusetts Institute of Technology, priority 2020, published 2023):
# Assays:
# ISC-enriched organoids [1] = assay: Primary screen, 384-well 2.5-D organoid differentiation (ENR+CD, 6 days, Target Selective Inhibitor Library, vs whole-plate median): ATP (CellTiter-Glo 3D, CTG); settings: for Z.CTG / SSMD.CTG: primary screen; for Z.CTG: standard z score; for SSMD.CTG: strictly standardized mean difference
# ISC-enriched organoids [2] = assay: Secondary (validation) screen, 384-well 2.5-D, ENR+CD 6 days, n=8 wells, vs ENR+CD+DMSO control: carbachol-induced lysozyme secretion (LYZ.S); format: cell-based, murine
# Paneth cells = assay: Flow cytometry of 3D-cultured intestinal organoids (ENR+CD, 6 days): Paneth cell fraction (lysozyme-positive, CD24-mid); format: cell-based, murine
# Experimental: Flow cytometry analysis (3D culture). ISC-enriched organoids cultured in 3D Matrigel with ENRCV media were passaged to 24-well plate in 3D Matrigel with ENRCV. At day zero, media were replaced to ENRCD with or without indicated compounds, and media were replaced every other day. […] Flow cytometry was performed using an LSR Fortessa (BD; Koch Institute Flow Cytometry Core at MIT). The data were analyzed using FlowJo v10 software.
# Single live cells were selected by several gating strategies and Paneth cells were identified as lysozyme-high, CD24-mid, side scatter-high (SSC-high) (FIG. 27E). […] To evaluate whether the culture media supplements C and D may alter the effects of the 6 hits, Applicants also performed lysozyme assay in the canonical ENR culture condition in 3-D (because Paneth cells exist in an immature state within ENR, Applicants were unable to robustly quantify Paneth cell number via flow cytometry).
# (§1) Flow cytometry. ISC-enriched organoids in 3D Matrigel culture were passaged to a 48-well plate and induced differentiation for 6 days by ENR+CD media containing DMSO or each drug indicated in the figures. DMSO- or drug-containing media were changed every other day. […] After vigorous pipetting and incubation at 37° C. for 15 min, the cell solution was diluted twice with basal media and centrifuged at 300 rcf for 3 min. […] The cell solution was centrifuged again at 300 rcf for 3 min at 4° C. to pellet the cells. […] Cells were centrifuged again for 3 min at 300 rcf and blocked with staining buffer (FACS buffer containing 0.5% Tween20 (Sigma, P2287)) for 15 min at RT in the dark. […] Flow cytometry was performed using an LSR Fortessa (BD; Koch Institute Flow Cytometry Core at MIT). Flow cytometry data were analyzed using FlowJo X v10.6.1 software.
# Live Paneth cells were identified as LYZ-high, CD24-mid, side scatter-high (SSC-high) (FIG. 50F).
# as §1, with “organoids in 3-D Matrigel culture” for “organoids in 3D Matrigel culture”, “to a 24- or 48-well plate” for “to a 48-well plate”
# [3] = system: human small intestinal organoids; assay: Lysozyme secretion assay, stem cell-enriched human small intestinal organoids; format: cell-based; settings: increasing KPT-330 concentrations, 6 days, three duodenal donors
# Excerpt: To extend the observations from the murine organoid system, Applicants sought to examine how XPO1 inhibition via KPT-330 may effect human small intestinal stem cells by utilizing a stem-cell enriched human small intestinal organoid model^46 (see Methods).
# Human crypt isolation and organoid culture. Samples from adult human duodenum were collected for organoid culture in accordance with MGH IRB guidance. Human donor tissue was non-inflamed excess tissue collected during bulk surgical resection via MGH pathology. Crypts were isolated from bulk resections as follows. Bulk resections were cut into approximately 0.25 cm sections from epithelial surface, and washed in PBSO repeatedly by gently pipetting the fragments using a 10-ml pipette until the supernatant was clear. Fragments were rocked on ice with crypt isolation buffer (10 mM EDTA, 10 mM HEPES, 2% FCS in PBSO) for 30 min. After isolation buffer was removed, fragments were washed with cold PBSO by vigorous shaking to release the crypts, this process was repeated with reserved crypt-laden supernatant fractions 4-6 times or until supernatant was free of intact crypts (visual inspection). […]
# Lysozyme secretion assay. […] The solution was replaced to a 96-well white microplate, and luminescent signals were measured by a microplate reader (infinite M200, Tecan).
smiles,measurement,setting,value
O=C(/C=C\n1cnc(-c2cc(C(F)(F)F)cc(C(F)(F)F)c2)n1)NNc1cnccn1 [KPT-330],Z.CTG,ISC-enriched organoids [1]; Dose 0.08 uM,0.503
same,Z.CTG,ISC-enriched organoids [1]; Dose 0.40 uM,−1.569
same,Z.CTG,ISC-enriched organoids [1]; Dose 2.00 uM,−2.135
same,Z.CTG,ISC-enriched organoids [1]; Dose 10.00 uM,−4.480
same,toxicity at concentrations higher than 160 nM,ISC-enriched organoids [1]; primary screening,higher concentrations proved toxic
same,SSMD.CTG,ISC-enriched organoids [1]; 1st of the 4 dose lines of the treatment (dose not given),0.686
same,SSMD.CTG,ISC-enriched organoids [1]; 2nd of the 4 dose lines of the treatment (dose not given),−0.942
same,SSMD.CTG,ISC-enriched organoids [1]; 3rd of the 4 dose lines of the treatment (dose not given),−2.044
same,SSMD.CTG,ISC-enriched organoids [1]; 4th of the 4 dose lines of the treatment (dose not given),−2.988
same,Z.LYZ.S,ISC-enriched organoids [2]; Dose 0.02 uM,−0.028
same,repSSMD.LYZ.S,ISC-enriched organoids [2]; Dose 0.02 uM,−0.044
same,Z.LYZ.S,ISC-enriched organoids [2]; Dose 0.04 uM,−0.587
same,repSSMD.LYZ.S,ISC-enriched organoids [2]; Dose 0.04 uM,−0.955
same,Z.LYZ.S,ISC-enriched organoids [2]; dose 0.08 uM,1.031
same,repSSMD.LYZ.S,ISC-enriched organoids [2]; dose 0.08 uM,1.678
same,increase in LYZ.S (stimulated LYZ secretion) relative to ENR+CD control,"ISC-enriched organoids [2]; validated doses, secondary screen",50-75%
same,enrichment in mature Paneth cells at day 6,Paneth cells; KPT-330 treatment day 0-2 of 6-day ENR+CD differentiation,greatest enrichment in mature Paneth cells
same,enrichment in mature Paneth cells at day 6,Paneth cells; KPT-330 treatment day 2-4,moderate enrichment
same,enrichment in mature Paneth cells at day 6 (flow cytometry),Paneth cells; KPT-330 treatment day 4-6,no different than untreated
same,mature Paneth cell population within organoids,"Paneth cells; hit compound at most potent dose from 2.5-D screening, ENR+CD 6 days, 3-D culture, vs control",significantly enhanced the mature Paneth cell population
same,normalized LYZ secretion,[3],normalized LYZ secretion significantly increases with dose
